Measured values taken from patent US20070004660A1, “Synergistic Modulation of Flt3 Kinase Using Alkylquinolines and Alkylquinazolines” (priority 2005, published 2007).
pIC50: −log10 of the molar value. Counter-ions that a name gives are not always drawn.

The compounds below were run against T1, isolated kinase domain of the human FLT3 receptor (a.a. 571-993) (Homo sapiens, UniProt P36888) (assay: FLT3 fluorescence polarization kinase assay). Settings: 150 uM ATP; uncertainty ±10%.
T1 construct: human FLT3 receptor (a.a. 571-993)
T1 sequence (P36888 571-993): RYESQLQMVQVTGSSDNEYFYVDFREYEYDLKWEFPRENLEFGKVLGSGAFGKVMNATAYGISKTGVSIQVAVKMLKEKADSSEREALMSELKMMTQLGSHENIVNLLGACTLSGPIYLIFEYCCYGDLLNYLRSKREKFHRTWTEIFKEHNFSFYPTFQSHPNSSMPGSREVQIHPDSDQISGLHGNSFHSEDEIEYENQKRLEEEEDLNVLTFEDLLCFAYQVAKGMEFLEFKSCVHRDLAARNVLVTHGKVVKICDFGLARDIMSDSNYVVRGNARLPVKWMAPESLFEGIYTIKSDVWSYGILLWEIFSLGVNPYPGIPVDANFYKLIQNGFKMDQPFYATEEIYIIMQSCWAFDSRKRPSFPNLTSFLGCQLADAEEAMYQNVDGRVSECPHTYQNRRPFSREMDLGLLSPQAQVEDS
Format: biochemical

SMILES	pIC50
CN1CCN(c2ccc3c(C4CCN(C(=O)Nc5ccc(N6CCCC6)cc5)CC4)ncnc3c2)CC1=O [Compound 184, 4-[7-(4-Methyl-3-oxo-piperazin-1-yl)-quinazolin-4-yl]-piperidine-1-carboxylic acid (4-pyrrolidin-1-yl-phenyl)-amide]	6.61
O=C(Nc1ccc(N2CCCC2)cc1)N1CCC(c2ncnc3cc(N4CCN(CCO)CC4)ccc23)CC1 [Compound 185, 4-{7-[4-(2-Hydroxy-ethyl)-piperazin-1-yl]-quinazolin-4-yl}-piperidine-1-carboxylic acid (4-pyrrolidin-1-yl-phenyl)-amide]	7.26
COCCN1CCN(c2ccc3c(C4CCN(C(=O)Nc5ccc(N6CCCC6)cc5)CC4)ncnc3c2)CC1 [Compound 186, 4-{7-[4-(2-Methoxy-ethyl)-piperazin-1-yl]-quinazolin-4-yl}-piperidine-1-carboxylic acid (4-pyrrolidin-1-yl-phenyl)-amide]	7.03
CCN1CCN(c2ccc3c(C4CCN(C(=O)Nc5ccc(N6CCCC6)cc5)CC4)ncnc3c2)CC1 [Compound 187, 4-[7-(4-Ethyl-piperazin-1-yl)-quinazolin-4-yl]-piperidine-1-carboxylic acid (4-pyrrolidin-1-yl-phenyl)-amide]	6.84
O=C(Nc1ccc(N2CCCC2)cc1)N1CCC(c2ncnc3cc(OCC4CCOCC4)ccc23)CC1 [Compound 188, 4-[7-(Tetrahydro-pyran-4-ylmethoxy)-quinazolin-4-yl]-piperidine-1-carboxylic acid (4-pyrrolidin-1-yl-phenyl)-amide]	6.41
O=C(Nc1ccc(N2CCCC2)cc1)N1CCC(c2ncnc3cc(OC4CCOCC4)ccc23)CC1 [Compound 189, 4-[7-(Tetrahydro-pyran-4-yloxy)-quinazolin-4-yl]-piperidine-1-carboxylic acid (4-pyrrolidin-1-yl-phenyl)-amide]	5.95
O=C(Nc1ccc(N2CCCC2)cc1)N1CCC(c2ncnc3cc(O[C@H]4CCOC4)ccc23)CC1 [Compound 190, (S)-4-[7-(Tetrahydro-furan-3-yloxy)-quinazolin-4-yl]-piperidine-1-carboxylic acid (4-pyrrolidin-1-yl-phenyl)-amide]	6.56
O=C(Nc1ccc(N2CCCC2)cc1)N1CCC(c2ncnc3cc(O[C@@H]4CCOC4)ccc23)CC1 [Compound 191, (R)-4-[7-(Tetrahydro-furan-3-yloxy)-quinazolin-4-yl]-piperidine-1-carboxylic acid (4-pyrrolidin-1-yl-phenyl)-amide]	6.67
O=C(Nc1ccc(N2CCCC2)cc1)N1CCC(c2ncnc3cc(N4CCN(c5ccncc5)CC4)ccc23)CC1 [Compound 194, 4-[7-(4-Pyridin-4-yl-piperazin-1-yl)-quinazolin-4-yl]-piperidine-1-carboxylic acid (4-pyrrolidin-1-yl-phenyl)-amide]	7.70
O=C(Nc1ccc(N2CCCC2)cc1)N1CCC(c2ncnc3cc(N4CCC(F)CC4)ccc23)CC1 [Compound 195, 4-[7-(4-Fluoro-piperidin-1-yl)-quinazolin-4-yl]-piperidine-1-carboxylic acid (4-pyrrolidin-1-yl-phenyl)-amide]	6.79
O=C(Nc1ccc(N2CCOCC2)cc1)N1CCC(c2ncnc3cc(N4CCC(F)CC4)ccc23)CC1 [Compound 196, 4-[7-(4-Fluoro-piperidin-1-yl)-quinazolin-4-yl]-piperidine-1-carboxylic acid (4-morpholin-4-yl-phenyl)-amide]	6.54
O=C(Nc1ccc(N2CCOCC2)cc1)N1CCC(c2ncnc3cc(N4CCNC4=O)ccc23)CC1 [Compound 197, 4-[7-(2-Oxo-imidazolidin-1-yl)-quinazolin-4-yl]-piperidine-1-carboxylic acid (4-morpholin-4-yl-phenyl)-amide]	5.98
CCNC(=O)N1CCN(c2ccc3c(C4CCN(C(=O)Nc5ccc(N6CCCC6)cc5)CC4)ncnc3c2)CC1 [Compound 199, 4-{4-[1-(4-Pyrrolidin-1-yl-phenylcarbamoyl)-piperidin-4-yl]-quinazolin-7-yl}-piperazine-1-carboxylic acid ethylamide]	7.55
CN1CCN(CCOc2ccc3c(C4CCN(C(=O)Nc5ccc(N6CCCC6)cc5)CC4)ncnc3c2)CC1=O [Compound 202, 4-{7-[2-(4-Methyl-3-oxo-piperazin-1-yl)-ethoxy]-quinazolin-4-yl}-piperidine-1-carboxylic acid (4-pyrrolidin-1-yl-phenyl)-amide]	7.05
CN1CCN(CCCOc2cc3ncnc(C4CCN(C(=O)Nc5ccc(N6CCOCC6)cc5)CC4)c3cc2F)CC1 [Compound 205, 4-{6-Fluoro-7-[3-(4-methyl-piperazin-1-yl)-propoxy]-quinazolin-4-yl}-piperidine-1-carboxylic acid (4-morpholin-4-yl-phenyl)-amide]	7.20
COc1cc2ncnc(C3CCN(C(=O)Nc4ccc(OC(C)C)cc4)CC3)c2cc1OC [Example 1, 4-(6,7-Dimethoxy-quinazolin-4-yl)-piperidine-1-carboxylic acid (4-isopropoxy-phenyl)-amide hydrochloride]	7.34
CC(C)Oc1ccc(NC(=O)N2CCC(c3ncnc4ccc(C#CCN5CCOCC5)cc34)CC2)cc1 [Example 15, 4-[6-(3-Morpholin-4-yl-prop-1-ynyl)-quinazolin-4-yl]-piperidine-1-carboxylic acid (4-isopropoxy-phenyl)-amide]	7.34
CC(C)c1ccc(NC(=O)CN2CCC(c3ncnc4ccccc34)CC2)cc1 [Example 16, N-(4-Isopropyl-phenyl)-2-(4-quinazolin-4-yl-piperidin-1-yl)-acetamide]	7.25
COc1cc2ncnc(C3CCN(C(=O)Nc4ccc(OC5CCC5)nc4)CC3)c2cc1OC [Example 17, 4-(6,7-Dimethoxy-quinazolin-4-yl)-piperidine-1-carboxylic acid (6-cyclobutoxy-pyridin-3-yl)-amide]	7.80
COc1cc2ncnc(C3CCN(C(=O)Nc4ccc(N5CCOCC5)cc4)CC3)c2cc1OC [Example 18, 4-(6,7-Dimethoxy-quinazolin-4-yl)-piperidine-1-carboxylic acid (4-morpholin-4-yl-phenyl)-amide]	7.21

The remaining compounds from weak to strong by pIC50, led by results:

pIC50	SMILES
7.77	O=C(Nc1ccc(N2CCCC2)cc1)N1CCC(c2ncnc3cc(N4CCCC4)ccc23)CC1 [Compound 179, 4-(7-Pyrrolidin-1-yl-quinazolin-4-yl)-piperidine-1-carboxylic acid (4-pyrrolidin-1-yl-phenyl)-amide]
7.77	O=C(CO)N1CCN(c2ccc3c(C4CCN(C(=O)Nc5ccc(N6CCCC6)cc5)CC4)ncnc3c2)CC1 [Compound 201, 4-{7-[4-(2-Hydroxy-acetyl)-piperazin-1-yl]-quinazolin-7-yl}-piperidine-1-carboxylic acid (4-pyrrolidin-1-yl-phenyl)-amide]
7.77	COc1cc2ncnc(C3CCN(C(=O)Nc4ccc(N5CCCCC5)cc4)CC3)c2cc1OC [Example 19, 4-(6,7-Dimethoxy-quinazolin-4-yl)-piperidine-1-carboxylic acid (4-piperidin-1-yl-phenyl)-amide]
7.96	O=C(Nc1ccc(N2CCCC2)cc1)N1CCC(c2ncnc3cc(N4CCSCC4)ccc23)CC1 [Compound 182, 4-(7-Thiomorpholin-4-yl-quinazolin-4-yl)-piperidine-1-carboxylic acid (4-pyrrolidin-1-yl-phenyl)-amide]
8.00	O=C(Nc1ccc(N2CCCC2)cc1)N1CCC(c2ncnc3cc(N4CCNC4=O)ccc23)CC1 [Compound 178, 4-[7-(2-Oxo-imidazolidin-1-yl)-quinazolin-4-yl]-piperidine-1-carboxylic acid (4-pyrrolidin-1-yl-phenyl)-amide]
8.00	O=C(Nc1ccc(N2CCCC2)cc1)N1CCC(c2ncnc3cc(N4CCOCC4)ccc23)CC1 [Compound 181, 4-(7-Morpholin-4-yl-quinazolin-4-yl)-piperidine-1-carboxylic acid (4-pyrrolidin-1-yl-phenyl)-amide]
8.15	COc1cc2ncnc(C3CCN(C(=O)Nc4ccc(C5CCCCC5)cc4)CC3)c2cc1OC [Example 21, 4-(6,7-Dimethoxy-quinazolin-4-yl)-piperidine-1-carboxylic acid (4-cyclohexyl-phenyl)-amide]
8.22	O=C(Nc1ccc(N2CCCC2)cc1)N1CCC(c2ncnc3cc(-n4ccnc4)ccc23)CC1 [Compound 180, 4-(7-Imidazol-1-yl-quinazolin-4-yl)-piperidine-1-carboxylic acid (4-pyrrolidin-1-yl-phenyl)-amide]
8.40	O=C(Nc1ccc(N2CCCC2)cc1)N1CCC(c2ncnc3cc(N4CCN(c5ncccn5)CC4)ccc23)CC1 [Compound 193, 4-[7-(4-Pyrimidin-2-yl-piperazin-1-yl)-quinazolin-4-yl]-piperidine-1-carboxylic acid (4-pyrrolidin-1-yl-phenyl)-amide]
8.52	O=C1CN(c2ccc3c(C4CCN(C(=O)Nc5ccc(N6CCCC6)cc5)CC4)ncnc3c2)CCN1 [Compound 183, 4-[7-(3-Oxo-piperazin-1-yl)-quinazolin-4-yl]-piperidine-1-carboxylic acid (4-pyrrolidin-1-yl-phenyl)-amide]
8.70	O=C(Nc1ccc(N2CCCC2)cc1)N1CCC(c2ncnc3cc(N4CCN(c5ccccn5)CC4)ccc23)CC1 [Compound 192, 4-[7-(4-Pyridin-2-yl-piperazin-1-yl)-quinazolin-4-yl]-piperidine-1-carboxylic acid (4-pyrrolidin-1-yl-phenyl)-amide]
